From patent publication US20240018133A1, “MODULATORS OF THE INTEGRATED STRESS PATHWAY” (Calico Life Sciences LLC, priority 2019, published 2024)

Each compound was assayed on ATF4 luciferase reporter (human full-length ATF4 5'-UTR fused to firefly luciferase) in HEK293T cells (assay: ATF4-Luc assay (in vitro model of VWMD): HEK293T cells carrying ATF4 luciferase reporter, tunicamycin-treated). Details: Homo sapiens, HEK-293T, 1 μg/mL tunicamycin, 7 hours, One Glo luminescence.
Assay type: cell-based
Description: In order to test exemplary compounds of the invention in a cellular context, a stable VWMD cell line was first constructed. The ATF4 reporter was prepared by fusing the human full-length ATF4 5′-UTR (NCBI Accession No. BC022088.2) in front of the firefly luciferase (FLuc) coding sequence lacking the initiator methionine as described in Sidrauski et al (eLife 2013). The construct was used to produce recombinant retroviruses using standard methods and the resulting viral supernatant was used to transduce HEK293T cells, which were then subsequently selected with puromycin to generate a stable cell line.
HEK293T cells carrying the ATF4 luciferase reporter were plated on polylysine coated 384-well plates (Greiner Bio-one) at 30,000 cells per well. Cells were treated the next day with 1 μg/mL tunicamycin and 200 nM of a compound of Formula (I) for 7 hours. Luminescence was measured using One Glo (Promega) as specified by the manufacturer. Cells were maintained in DMEM with L-glutamine supplemented with 10% heat-inactivated FBS (Gibco) and Antibiotic-Antimycotic solution (Gibco).
Table 2 below summarizes the EC50 data obtained using the ATF4-Luc assay for exemplary compounds of the invention.
Cc1cc2oc(C(=O)NC34CC(NC(=O)COc5ccc(Cl)c(F)c5)(C3)C4)cc(=O)c2cc1C [Compound 285, N-{3-[2-(4-chloro-3-fluorophenoxy)acetamido]bicyclo[1.1.1]pentan-1-yl}-6,7-dimethyl-4-oxo-4H-1-benzopyran-2-carboxamide] showed an EC50 of less than 10 nM.
For O=C(NC12CC(NC(=O)[C@H]3CC(=O)c4cc(Cl)ccc4O3)(C1)C2)c1ccc(OC(F)(F)F)cn1 [Compound 379, N-(3-{[(2R)-6-chloro-4-oxo-3,4-dihydro-2H-1-benzopyran-2-carbonyl]amino}bicyclo[1.1.1]pentan-1-yl)-5-(trifluoromethoxy)pyridine-2-carboxamide], the EC50 was 500 to 2000 nM.
O=C(COc1ccc(F)c(F)c1)NC12CC(NC(=O)[C@@H]3C[C@H](O)c4cc(F)c(F)cc4O3)(C1)C2 [Compound 273, (2S,4S)—N-{3-[2-(3,4-difluorophenoxy)acetamido]bicyclo[1.1.1]pentan-1-yl}-6,7-difluoro-4-hydroxy-3,4-dihydro-2H-1-benzopyran-2-carboxamide] showed an EC50 of 10 to 50 nM.
Cc1cc2c(cc1F)[C@H](O)C[C@H](C(=O)NC13CC(NC(=O)COc4ccc(Cl)c(F)c4)(C1)C3)O2 (single isomer, unassigned) [Compound 241] showed an EC50 of less than 10 nM.
In the case of O=C(COc1ccc(Cl)c(F)c1)NC12CC(NC(=O)C3CC(NCCO)c4cc(Cl)ccc4O3)(C1)C2 (stereo not drawn) [Compound 188, 6-chloro-N-{3-[2-(4-chloro-3-fluorophenoxy)acetamido]bicyclo[1.1.1]pentan-1-yl}-4-[(2-hydroxyethyl)amino]-3,4-dihydro-2H-1-benzopyran-2-carboxamide], the EC50 is reported as 10 to 50 nM.
CN1CC(C(=O)NC23CC(NC(=O)COc4ccc(Cl)c(F)c4)(C2)C3)Oc2ccc(Cl)cc21 (single isomer, unassigned) [Compound 104] gave an EC50 of less than 10 nM.
With O=C(COc1ccc(Cl)c(F)c1)NC12CC(NC(=O)c3cc(=O)c4cc(F)c(Cl)cc4o3)(C1)C2 [Compound 232, 7-chloro-N-{3-[2-(4-chloro-3-fluorophenoxy)acetamido]bicyclo[1.1.1]pentan-1-yl}-6-fluoro-4-oxo-4H-1-benzopyran-2-carboxamide] the EC50 was less than 10 nM.
Compound O=C(COc1ccc(F)c(F)c1)NC12CC(NC(=O)[C@@H]3CC(=O)c4cc(Cl)ccc4O3)(C1)C2 [Compound 276, (2S)-6-chloro-N-{3-[2-(3,4-difluorophenoxy)acetamido]bicyclo[1.1.1]pentan-1-yl}-4-oxo-3,4-dihydro-2H-1-benzopyran-2-carboxamide] has an EC50 of 10 to 50 nM.
Work on O=C(COc1ccc(Cl)c(F)c1)NC12CCC(NC(=O)[C@H]3C[C@@H](O)c4cc(Cl)ccc4O3)(C1)C2 (racemic) [Compound 296, rac-(2R,4R)-6-chloro-N-{4-[2-(4-chloro-3-fluorophenoxy)acetamido]bicyclo[2.1.1]hexan-1-yl}-4-hydroxy-3,4-dihydro-2H-1-benzopyran-2-carboxamide] yielded an EC50 of less than 10 nM.
In the case of O=C(NC12CC(NC(=O)[C@H]3C[C@@H](O)c4cc(Cl)ccc4O3)(C1)C2)c1cnc(C2CNC2)o1 [Compound 389, 2-(azetidin-3-yl)-N-(3-{[(2R,4R)-6-chloro-4-hydroxy-3,4-dihydro-2H-1-benzopyran-2-carbonyl]amino}bicyclo[1.1.1]pentan-1-yl)-1,3-oxazole-5-carboxamide], the EC50 is reported as greater than 2000 nM.
O=C(COc1ccc(F)c(F)c1)NC12CC(NC(=O)[C@@H]3C[C@H](O)c4cc(Cl)ccc4O3)(C1)C2 [Compound 278, (2S,4S)-6-chloro-N-{3-[2-(3,4-difluorophenoxy)acetamido]bicyclo[1.1.1]pentan-1-yl}-4-hydroxy-3,4-dihydro-2H-1-benzopyran-2-carboxamide] showed an EC50 of 10 to 50 nM.
In the case of O=C(COc1ccc(Cl)c(F)c1)NC12CC(NC(=O)C3CC(NC4(C(=O)O)CC4)c4cc(Cl)ccc4O3)(C1)C2 (stereo not drawn) [Compound 210, 1-{[6-chloro-2-({3-[2-(4-chloro-3-fluorophenoxy)acetamido]bicyclo[1.1.1]pentan-1-yl}carbamoyl)-3,4-dihydro-2H-1-benzopyran-4-yl]amino}cyclopropane-1-carboxylic acid], the EC50 is reported as 250 to 500 nM.
Work on COc1ncc(OCC(=O)NC23CC(NC(=O)[C@H]4CC(=O)c5cc(Cl)ccc5O4)(C2)C3)cn1 [Compound 333, (2R)-6-chloro-N-(3-{2-[(2-methoxypyrimidin-5-yl)oxy]acetamido}bicyclo[1.1.1]pentan-1-yl)-4-oxo-3,4-dihydro-2H-1-benzopyran-2-carboxamide] yielded an EC50 of 250 to 500 nM.
O=C(COc1ccc(Cl)c(F)c1)NC12CC(NC(=O)[C@H]3C[C@@H](O)c4cc(F)c(F)cc4O3)(C1)C2 [Compound 252, (2R,4R)—N-{3-[2-(4-chloro-3-fluorophenoxy)acetamido]bicyclo[1.1.1]pentan-1-yl}-6,7-difluoro-4-hydroxy-3,4-dihydro-2H-1-benzopyran-2-carboxamide] gave an EC50 of less than 10 nM.
With NC1CC(C(=O)NC23CC(NC(=O)COc4ccc(Cl)c(F)c4)(C2)C3)Oc2ccc(Cl)cc21 (stereo not drawn) [Compound 305, 4-amino-6-chloro-N-{3-[2-(4-chloro-3-fluorophenoxy)acetamido]bicyclo[1.1.1]pentan-1-yl}-3,4-dihydro-2H-1-benzopyran-2-carboxamide] the EC50 was less than 10 nM.
In the case of O=C(COc1ccc(Cl)c(F)c1)NC12CCC(NC(=O)[C@@H]3C[C@H](O)c4cc(Cl)ccc4O3)(CC1)[C@@H](O)C2 (single isomer, unassigned) [Compound 239], the EC50 is reported as less than 10 nM.
O=C(NC12CCC(NC(=O)C3CC(=O)c4cc(Cl)ccc4O3)(CC1)CC2)c1cnc(C(F)F)cn1 (stereo not drawn) [Compound 304, N-{4-[(6-chloro-4-oxo-3,4-dihydro-2H-1-benzopyran-2-carbonyl)amino]bicyclo[2.2.2]octan-1-yl}-5-(difluoromethyl)pyrazine-2-carboxamide] showed an EC50 of 500 to 2000 nM.
O=C(O)CNC1CC(C(=O)NC23CC(NC(=O)COc4ccc(Cl)c(F)c4)(C2)C3)Oc2ccc(Cl)cc21 (stereo not drawn) [Compound 192, {[6-chloro-2-({3-[2-(4-chloro-3-fluorophenoxy)acetamido]bicyclo[1.1.1]pentan-1-yl}carbamoyl)-3,4-dihydro-2H-1-benzopyran-4-yl]amino}acetic acid] gave an EC50 of 500 to 2000 nM.
Compound O=C(NC12CC(NC(=O)C3CC(=O)c4cc(Cl)ccc4O3)(C1)C2)c1cnc(C(F)F)cn1 (stereo not drawn) [Compound 217, N-{3-[(6-chloro-4-oxo-3,4-dihydro-2H-1-benzopyran-2-carbonyl)amino]bicyclo[1.1.1]pentan-1-yl}-5-(difluoromethyl)pyrazine-2-carboxamide] has an EC50 of 50 to 250 nM.
With O=C(NC12CCC(NC(=O)C3CC(=O)c4cc(Cl)ccc4O3)(C1)C2)OCc1ccccc1 (stereo not drawn) [Compound 312, benzyl {4-[(6-chloro-4-oxo-3,4-dihydro-2H-1-benzopyran-2-carbonyl)amino]bicyclo[2.1.1]hexan-1-yl}carbamate] the EC50 was 500 to 2000 nM.
O=C(COc1ccc(Cl)c(F)c1)NC12CC(NC(=O)C3CN(C(=O)c4ccc(S(=O)(=O)F)cc4)c4cc(Cl)ccc4O3)(C1)C2 (stereo not drawn) [Compound 147, 4-[6-chloro-2-({3-[2-(4-chloro-3-fluorophenoxy)acetamido]bicyclo[1.1.1]pentan-1-yl}carbamoyl)-2,3-dihydro-4H-1,4-benzoxazine-4-carbonyl]benzene-1-sulfonyl fluoride] was tested, and the EC50 was 500 to 2000 nM.
